According to patent US11407765B2, “Tetracyclic heteroaryl compounds” (AstraZeneca AB, priority 2018, dated 2022):
Like-named read-outs stand apart in the source and are kept apart here.

Columns and labels:
Half life in rat blood = format: in vitro ADME
[1] = Caco AB cell permeability; format: in vitro ADME; conditions: human, Caco-2; A to B
[2] = In vivo pharmacokinetics in rat (oral bioavailability, clearance)
KRasG12C [3] = biological target: T1, KRasG12C (Homo sapiens, UniProt P01116, G12C); assay: KRasG12C functional assay (HTRF, SOS-mediated nucleotide exchange / Raf RBD binding); format: biochemical; conditions: 4 hrs incubation with GDP loaded biotinylated KRasG12C, single experiment or average of two or more
T1 construct: biotin (biotinylated); made in house
Procedure: KRasG12C Functional Assay
All enzyme and substrate solutions were prepared in assay buffer containing 20 mM HEPES (pH 7.5), 5 mM MgCl2, 150 mM NaCl, and 0.01% Tween 20. […] In a separate mix 20 nM GST-Raf Ras binding domain (GST-Raf RBD, purified in house) and 4 μg/ml anti-GST XL665 antibody (Cisbio) was prepared in assay buffer containing 50 mM Potassium Fluoride and 0.05 mg/ml BSA and equilibrated for 4 hours before adding 0.6 μM Guanosine 5′-[γ-thio]triphosphate (GTPγS, Sigma) and 0.08 μM SOS (purified in house). 5 μl of the GST-RAF RBD mix was then dispensed into each well of the assay plate. […] This is detected simultaneously via the specific binding interaction between active GTPγS KRas^G12C with GST-Raf RBD which brings the europium and XL665 into close proximity enabling an increased FRET signal to be detected on a Pherastar (BMG) plate reader equipped with the HTRF filter module. […] IC50 values were calculated from normalised dose-response response FRET data curve fitted in Genedata screener (Basel, Switzerland).

KRasG12C [4] = biological target: T1, KRasG12C; assay: KRasG12C mass spectrometry adducting assay; format: binding; conditions: 10 μM test compound, 4 μM GDP loaded KRasG12C, 4 hours
Procedure: KRasG12C Mass Spectrometry Adducting Assay
Enzyme solutions were prepared in assay buffer containing 20 mM HEPES (pH 7.5), 5 mM MgCl2, and 150 mM NaCl. […] The plate was sealed before reading on a Xevo G2 QTOF (Waters) and Acquity LC system (Waters). 10 μl of sample was injected onto a Xbridge BEH300; C4; 3.5 um; 2.1×50 mm column (Waters) running a 3 minute gradient. Blank samples were run in between each test sample.
Data was analysed in Mass Lynx software (Waters), the Total ion count (TIC) trace was used and the eluted protein peak data combined. Using the combined spectrum the data was deconvoluted using MaxEnt1 method. The peak area for apo-protein KRas^G12C (APO) and KRAS+relative cmpd mass (adduct) were measured, and a percentage adduct was calculated using the following calculation: Percent adduct=100*(area of adduct peak/(sum of APO+adduct peaks)

[5] = read-out: KRasG12C functional assay IC50 value
[6] = KRasG12C functional assay IC50 value

T1 sequence (P01116 1-188 isoform P01116-2 G12C): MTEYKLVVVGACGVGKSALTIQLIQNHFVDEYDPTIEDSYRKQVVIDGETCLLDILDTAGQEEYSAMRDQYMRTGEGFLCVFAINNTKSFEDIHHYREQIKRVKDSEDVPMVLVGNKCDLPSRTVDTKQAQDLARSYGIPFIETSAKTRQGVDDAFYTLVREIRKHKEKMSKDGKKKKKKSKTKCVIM

| IC50 (KRasG12C [3]; [5]) [nM] | KRasG12C M. S. Binding Mean adduct % (KRasG12C [4]) [%] | Compound | also measured |
| --- | --- | --- | --- |
|  |  | C=CC(=O)N1CCN2c3ncnc4c(F)c(-c5c(O)cccc5F)c(Cl)c(c34)OC[C@@H]2C1 [R^5 desmethyl compound, 1-((8aS)-6-chloro-4-fluoro-5-(2-fluoro-6-hydroxyphenyl)-8a,9,11,12-tetrahydropyrazino[2′,1′:3,4] [1,4]oxazepino[5,6,7-de]quinazolin-10(8H)-yl)prop-2-en-1-one, reference compound] | half-life (Half life in rat blood): 12 min; Papp A→B [1]: 5.8 ×10⁻⁶ cm/s; clearance ([2]; in vivo): 962 mL/min/kg; bioavailability ([2]; in vivo, po): 0% |
| 68 | 94 | C=CC(=O)N1CCN2c3ncnc4c(F)c(-c5cccc6cc[nH]c(=O)c56)c(Cl)c(c34)OC[C@@H]2C1 [Example 10, 8-[(8aS)-6-Chloro-4-fluoro-10-(prop-2-enoyl)-8,8a,9,10,11,12-hexahydropyrazino[2′,1′:3,4][1,4]oxazepino[5,6,7-de]quinazolin-5-yl]isoquinolin-1(2H)-one] |  |
| 29 | 100 | C=CC(=O)N1CCN2c3ncnc4c(F)c(-c5c(F)ccc6[nH]cnc56)c(Cl)c(c34)OC[C@@H]2C1 (single isomer, unassigned) [Example 20] |  |
| 201 | 96 | C=CC(=O)N1CCN2c3ncnc4c(F)c(-c5n[nH]c6ccccc56)c(Cl)c(c34)OC[C@@H]2C1 [Example 11, 1-[(8aS)-6-Chloro-4-fluoro-5-(1H-indazol-3-yl)-8a,9,11,12-tetrahydropyrazino[2′,1′:3,4][1,4]oxazepino[5,6,7-de]quinazolin-10(8H)-yl]prop-2-en-1-one] |  |
| 30 | 95 | C=CC(=O)N1CCN2c3ncnc4c(F)c(-c5c(F)ccc6[nH]ncc56)c(Cl)c(c34)OC[C@@H]2C1 (single isomer, unassigned) [Example 22] |  |
| 113 | 54 | C=CC(=O)N1C[C@H]2COc3c(Cl)c(-c4c(O)cccc4F)c(F)c4ncnc(c34)N2C[C@@H]1C [Example 3, 1-[(8aS,11S)-6-Chloro-4-fluoro-5-(2-fluoro-6-hydroxyphenyl)-11-methyl-8a,9,11,12-tetrahydropyrazino[2′,1′:3,4][1,4]oxazepino[5,6,7-de]quinazolin-10(8H)-yl]prop-2-en-1-one] |  |
| 170 | 94 | Cc1ccc2[nH]ncc2c1-c1c(Cl)c2c3c(ncnc3c1F)N1CCN(C(=O)/C=C/CN(C)C)C[C@H]1CO2 (single isomer, unassigned) [Example 30] |  |
| 5 | 92 | C=CC(=O)N1CCN2c3ncnc4c(F)c(-c5c(F)ccc6cc[nH]c(=O)c56)c(Cl)c(c34)OC[C@@H]2C1 (single isomer, unassigned) [Example 28] |  |
| 31 | 95 | C=CC(=O)N1CCN2c3ncnc4c(F)c(-c5c(C)cccc5O)c(Cl)c(c34)OC[C@@H]2C1 (single isomer, unassigned) [Example 12] |  |
| 290 | 25 | C=CC(=O)N1CCN2c3ncnc4c(F)c(-c5c(C)ccc6c5C(=O)NC6)c(Cl)c(c34)OC[C@@H]2C1 (single isomer, unassigned) [Example 2] |  |
| 24 | 94 | C=CC(=O)N1CCN2c3ncnc4c(F)c(-c5c(C)ccc6[nH]nnc56)c(Cl)c(c34)OC[C@@H]2C1 (single isomer, unassigned) [Example 19] |  |
| 51 | 100 | C=CC(=O)N1CCN2c3ncnc4c(F)c(-c5c(F)ccc6[nH]nnc56)c(Cl)c(c34)OC[C@@H]2C1 (single isomer, unassigned) [Example 26] |  |
|  |  | C=CC(=O)N1C[C@@H]2CCOc3c(Cl)c(-c4c(O)cccc4F)c(F)c4ncnc(c34)N2C[C@H]1C (single isomer, unassigned) [Example 39] | IC50 (KRasG12C [3]; [6]): 3 nM; Papp A→B [1]: 72 ×10⁻⁶ cm/s; clearance (Cl) [2]: 22 mL/min/kg; oral bioavailability [2]: 75% |

| Compound | IC50 (KRasG12C [3]; [5]) [nM] | KRasG12C M. S. Binding Mean adduct % (KRasG12C [4]) [%] | also measured |
| --- | --- | --- | --- |
| C=CC(=O)N1C[C@H]2COc3c(Cl)c(-c4c(O)cccc4F)c(F)c4ncnc(c34)N2C[C@H]1C (single isomer, unassigned) [Example 4] | 50 | 96 | Papp A→B [1]: 58 ×10⁻⁶ cm/s; oral bioavailability [2]: 31%; clearance ([2]; in vivo): 29 mL/min/kg |
| C=CC(=O)N1C[C@H]2COc3c(Cl)c(-c4c(O)cccc4F)c(F)c4ncnc(c34)N2C[C@H]1C (single isomer, unassigned) [Example 5] | 6350 | 14 |  |
| C=CC(=O)N1C[C@@H]2CCOc3c(Cl)c(-c4c(O)cccc4F)c(F)c4ncnc(c34)N2C[C@@H]1C (single isomer, unassigned) [Example 42] |  | 95.528 | IC50 (KRasG12C [3]; [6]): 111 nM |
